What was measured:
Experiment in all cases: KINOMEscan competition binding
STK36 = STK36 (Homo sapiens, UniProt Q9NRP7); settings: read-out: Percent Control
Experimental: (§1) KINOMEscan™ is based on a competition binding assay that quantitatively measures the ability of a compound to compete with an immobilized, active-site directed ligand (Fabian et al. (2005) Nat. Biotechnol. 23, 329; Karaman et al. (2008) Nat. Biotechnol. 26, 127). The compound was screened at 10 μM, and results for primary screen binding interactions are reported as ‘% Ctrl’, where lower numbers indicate stronger hits. The results for kinases targets with a % Ctrl less than 30 can be seen in Table 2.

FGR = FGR (Homo sapiens, UniProt P09769); settings: read-out: Percent Control
Experimental: as §1

DDR1 = DDR1 (Homo sapiens, UniProt Q08345); settings: read-out: Percent Control
Experimental: as §1

FLT4 = FLT4 (Homo sapiens, UniProt P35916); settings: read-out: Percent Control
Experimental: as §1

FLT1 = FLT1 (Homo sapiens, UniProt P17948); settings: read-out: Percent Control
Experimental: as §1

ROS1 = target: T1, ROS1 (Homo sapiens, UniProt P08922); settings: read-out: Percent Control
T1 construct: purchased KINOMEscan (screening service)
Experimental: as §1

ERBB4 = ERBB4 (Homo sapiens, UniProt Q15303); settings: read-out: Percent Control
Experimental: as §1

TNNI3K = target: T2, TNNI3K (Homo sapiens, UniProt Q59H18); settings: read-out: Percent Control
T2 construct: purchased KINOMEscan (panel service)
Experimental: as §1

EPHA1 = EPHA1 (Homo sapiens, UniProt P21709); settings: read-out: Percent Control
Experimental: as §1

MUSK = MUSK (Homo sapiens, UniProt O15146); settings: read-out: Percent Control
Experimental: as §1

EPHA3 = target: T3, EPHA3 (Homo sapiens, UniProt P29320); settings: read-out: Percent Control
T3 construct: purchased KINOMEscan (screening service)
Experimental: as §1

MAP3K15 = target: T4, MAP3K15 (Homo sapiens, UniProt Q6ZN16); settings: read-out: Percent Control
T4 construct: purchased KINOMEscan (screening service)
Experimental: as §1

p38-alpha = target: T5, p38-alpha (Homo sapiens, UniProt Q16539); settings: p38-alpha (Entrez MAPK14), read-out: Percent Control
T5 construct: purchased KINOMEscan (panel service)
Experimental: as §1

YES = target: T6, YES (Homo sapiens, UniProt P07947); settings: YES (Entrez YES1), read-out: Percent Control
T6 construct: purchased KINOMEscan (panel service)
Experimental: as §1

CTK = CTK (Homo sapiens, UniProt P42679); settings: CTK (Entrez MATK), read-out: Percent Control
Experimental: as §1

EGFR(G719S) = EGFR(G719S) (Homo sapiens, UniProt P00533, G719S); settings: read-out: Percent Control
Experimental: as §1

PIP5K2C = target: T7, PIP5K2C (Homo sapiens, UniProt Q8TBX8); settings: PIP5K2C (Entrez PIP4K2C), read-out: Percent Control
T7 construct: purchased KINOMEscan (screening service)
Experimental: as §1

KIT(D816V) = target: T8, KIT(D816V) (Homo sapiens, UniProt P10721, D816V); settings: read-out: Percent Control
T8 construct: purchased KINOMEscan (panel service)
Experimental: as §1

FLT3(K663Q) = FLT3(K663Q) (Homo sapiens, UniProt P36888, K663Q); settings: read-out: Percent Control
Experimental: as §1

CDC2L2 = target: T9, CDC2L2 (Homo sapiens, UniProt Q9UQ88); settings: read-out: Percent Control
T9 construct: purchased KINOMEscan (screening platform)
Experimental: as §1

CSF1R = target: T10, CSF1R (Homo sapiens, UniProt P07333); settings: read-out: Percent Control
T10 construct: purchased KINOMEscan (panel service)
Experimental: as §1

KIT(D816H) = KIT(D816H) (Homo sapiens, UniProt P10721, D816H); settings: read-out: Percent Control
Experimental: as §1

DRAK2 = target: T11, DRAK2 (Homo sapiens, UniProt O94768); settings: DRAK2 (Entrez STK17B), read-out: Percent Control
T11 construct: purchased KINOMEscan (screening service)
Experimental: as §1

GCN2(Kin.Dom.2, S808G) = target: T12, GCN2(Kin.Dom.2, S808G) (Homo sapiens, UniProt Q9P2K8, S808G); settings: GCN2(Kin.Dom.2, S808G) (Entrez EIF2AK4), read-out: Percent Control
T12 construct: GCN2(Kin.Dom.2, S808G)
Experimental: as §1

[1] = target: ABL1(F317L)-nonphosphorylated (Homo sapiens, UniProt P00519, F317L); settings: read-out: Percent Control
Experimental: as §1

EPHB4 = EPHB4 (Homo sapiens, UniProt P54760); settings: read-out: Percent Control
Experimental: as §1

[2] = target: ABL1(F317I)-phosphorylated (Homo sapiens, UniProt P00519, F317I); settings: read-out: Percent Control
Experimental: as §1

JNK2 = JNK2 (Homo sapiens, UniProt P45984); settings: JNK2 (Entrez MAPK9), read-out: Percent Control
Experimental: as §1

ERBB2 = ERBB2 (Homo sapiens, UniProt P04626); settings: read-out: Percent Control
Experimental: as §1

FRK = FRK (Homo sapiens, UniProt P42685); settings: read-out: Percent Control
Experimental: as §1

KIT(V559D, V654A) = KIT(V559D, V654A) (Homo sapiens, UniProt P10721, V559D/V654A); settings: read-out: Percent Control
Experimental: as §1

NEK4 = target: T13, NEK4 (Homo sapiens, UniProt P51957); settings: read-out: Percent Control
T13 construct: purchased KINOMEscan (screening platform)
Experimental: as §1

PFCDPK1(P. falciparum) = PFCDPK1(P. falciparum) (Plasmodium falciparum, UniProt P62344); settings: PFCDPK1(P. falciparum) (Entrez CDPK1), read-out: Percent Control
Experimental: as §1

[3] = target: ABL1(F317I)-nonphosphorylated (Homo sapiens, UniProt P00519, F317I); settings: read-out: Percent Control
Experimental: as §1

FYN = target: T14, FYN (Homo sapiens, UniProt P06241); settings: read-out: Percent Control
T14 construct: purchased KINOMEscan (panel service)
Experimental: as §1

T6 sequence (P07947 whole entry): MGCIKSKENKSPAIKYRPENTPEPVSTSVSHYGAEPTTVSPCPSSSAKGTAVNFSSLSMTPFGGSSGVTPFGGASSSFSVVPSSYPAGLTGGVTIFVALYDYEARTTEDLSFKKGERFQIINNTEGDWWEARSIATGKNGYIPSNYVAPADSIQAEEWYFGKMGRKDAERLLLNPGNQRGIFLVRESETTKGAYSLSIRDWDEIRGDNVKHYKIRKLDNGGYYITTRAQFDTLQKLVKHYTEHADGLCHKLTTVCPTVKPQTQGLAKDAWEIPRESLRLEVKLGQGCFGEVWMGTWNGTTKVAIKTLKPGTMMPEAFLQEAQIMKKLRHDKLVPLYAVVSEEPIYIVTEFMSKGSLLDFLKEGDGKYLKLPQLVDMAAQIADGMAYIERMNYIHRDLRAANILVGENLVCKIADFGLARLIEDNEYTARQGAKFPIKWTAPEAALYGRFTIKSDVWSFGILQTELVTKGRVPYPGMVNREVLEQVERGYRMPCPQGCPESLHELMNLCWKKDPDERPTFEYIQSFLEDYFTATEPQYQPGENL
Chain of KIT(D816H) (P10721 26-976 D816H): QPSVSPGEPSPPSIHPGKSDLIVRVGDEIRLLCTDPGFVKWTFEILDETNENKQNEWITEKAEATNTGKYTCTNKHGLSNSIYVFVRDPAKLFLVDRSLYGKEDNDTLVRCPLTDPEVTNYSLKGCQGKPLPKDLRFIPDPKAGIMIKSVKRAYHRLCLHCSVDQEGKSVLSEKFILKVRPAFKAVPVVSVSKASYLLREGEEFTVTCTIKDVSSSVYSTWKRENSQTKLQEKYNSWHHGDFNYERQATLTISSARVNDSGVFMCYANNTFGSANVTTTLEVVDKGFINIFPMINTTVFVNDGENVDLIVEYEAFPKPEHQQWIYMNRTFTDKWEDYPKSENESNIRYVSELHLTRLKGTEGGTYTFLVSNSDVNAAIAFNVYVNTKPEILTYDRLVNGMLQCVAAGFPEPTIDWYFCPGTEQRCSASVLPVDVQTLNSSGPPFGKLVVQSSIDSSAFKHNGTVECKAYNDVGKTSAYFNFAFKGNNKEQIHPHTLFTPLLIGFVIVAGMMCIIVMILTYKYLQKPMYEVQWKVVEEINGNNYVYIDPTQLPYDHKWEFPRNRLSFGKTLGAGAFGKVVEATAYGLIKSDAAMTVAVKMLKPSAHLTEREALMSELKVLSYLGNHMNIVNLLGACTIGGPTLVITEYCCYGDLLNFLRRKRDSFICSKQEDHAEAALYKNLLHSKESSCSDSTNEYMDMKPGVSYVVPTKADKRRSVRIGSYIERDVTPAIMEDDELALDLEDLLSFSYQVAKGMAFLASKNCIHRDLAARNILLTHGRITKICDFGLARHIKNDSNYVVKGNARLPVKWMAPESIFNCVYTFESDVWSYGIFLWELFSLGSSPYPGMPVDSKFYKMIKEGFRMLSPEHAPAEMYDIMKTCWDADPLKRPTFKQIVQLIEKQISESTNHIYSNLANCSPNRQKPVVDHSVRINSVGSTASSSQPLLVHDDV
T13 sequence (P51957 whole entry): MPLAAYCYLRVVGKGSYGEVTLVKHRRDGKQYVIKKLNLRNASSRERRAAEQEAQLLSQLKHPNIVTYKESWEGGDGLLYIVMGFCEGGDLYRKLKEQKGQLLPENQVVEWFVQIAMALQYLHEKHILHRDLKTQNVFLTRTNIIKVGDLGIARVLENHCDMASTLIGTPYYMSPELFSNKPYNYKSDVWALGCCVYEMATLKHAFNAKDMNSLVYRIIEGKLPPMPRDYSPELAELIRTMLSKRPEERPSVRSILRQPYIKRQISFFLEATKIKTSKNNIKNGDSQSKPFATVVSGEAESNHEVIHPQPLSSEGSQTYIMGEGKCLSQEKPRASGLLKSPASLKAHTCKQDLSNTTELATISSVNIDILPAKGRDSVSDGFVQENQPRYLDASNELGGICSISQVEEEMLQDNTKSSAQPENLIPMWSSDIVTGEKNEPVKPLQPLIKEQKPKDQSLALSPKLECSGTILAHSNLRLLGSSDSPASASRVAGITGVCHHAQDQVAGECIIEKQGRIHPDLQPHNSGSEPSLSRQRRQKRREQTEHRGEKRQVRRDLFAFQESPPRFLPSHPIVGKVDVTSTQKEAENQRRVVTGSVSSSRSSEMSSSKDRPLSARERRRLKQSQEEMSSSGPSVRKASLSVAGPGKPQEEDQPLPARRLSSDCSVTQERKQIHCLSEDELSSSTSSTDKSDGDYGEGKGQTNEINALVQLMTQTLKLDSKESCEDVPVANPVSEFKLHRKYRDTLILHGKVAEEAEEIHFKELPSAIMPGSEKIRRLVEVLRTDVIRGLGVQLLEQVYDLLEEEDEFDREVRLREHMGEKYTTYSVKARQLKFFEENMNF
Chain of JNK2 (P45984 whole entry): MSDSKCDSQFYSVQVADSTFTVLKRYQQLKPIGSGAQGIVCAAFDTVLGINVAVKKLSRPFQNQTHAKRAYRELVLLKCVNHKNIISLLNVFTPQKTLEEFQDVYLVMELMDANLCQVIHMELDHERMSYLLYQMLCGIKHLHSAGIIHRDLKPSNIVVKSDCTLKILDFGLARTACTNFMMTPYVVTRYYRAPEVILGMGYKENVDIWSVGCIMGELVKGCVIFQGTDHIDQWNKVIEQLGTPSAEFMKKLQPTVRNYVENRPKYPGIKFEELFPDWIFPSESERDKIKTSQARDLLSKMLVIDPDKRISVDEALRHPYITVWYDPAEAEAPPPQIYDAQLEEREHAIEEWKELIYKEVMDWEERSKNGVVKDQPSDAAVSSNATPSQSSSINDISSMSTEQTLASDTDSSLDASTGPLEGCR
T9 sequence (Q9UQ88 whole entry): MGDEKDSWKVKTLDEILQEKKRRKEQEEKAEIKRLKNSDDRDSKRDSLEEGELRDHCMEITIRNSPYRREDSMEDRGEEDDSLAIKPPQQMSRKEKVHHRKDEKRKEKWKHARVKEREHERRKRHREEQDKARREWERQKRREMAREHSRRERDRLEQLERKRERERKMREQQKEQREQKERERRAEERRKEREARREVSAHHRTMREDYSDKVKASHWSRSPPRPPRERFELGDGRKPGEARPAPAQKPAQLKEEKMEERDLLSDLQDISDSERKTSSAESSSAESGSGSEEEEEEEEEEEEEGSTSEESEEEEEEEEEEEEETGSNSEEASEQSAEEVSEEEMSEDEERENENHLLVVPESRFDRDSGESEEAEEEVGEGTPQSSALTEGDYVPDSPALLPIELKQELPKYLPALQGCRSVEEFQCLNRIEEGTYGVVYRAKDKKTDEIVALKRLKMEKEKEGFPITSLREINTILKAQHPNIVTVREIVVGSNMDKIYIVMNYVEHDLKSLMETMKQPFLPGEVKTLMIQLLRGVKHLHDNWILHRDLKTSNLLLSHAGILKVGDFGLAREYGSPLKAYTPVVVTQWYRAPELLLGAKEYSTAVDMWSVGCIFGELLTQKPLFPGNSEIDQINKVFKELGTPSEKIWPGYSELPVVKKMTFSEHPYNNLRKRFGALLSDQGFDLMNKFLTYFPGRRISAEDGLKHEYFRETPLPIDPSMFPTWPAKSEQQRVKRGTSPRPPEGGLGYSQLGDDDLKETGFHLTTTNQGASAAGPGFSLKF
Chain of MUSK (O15146 24-869): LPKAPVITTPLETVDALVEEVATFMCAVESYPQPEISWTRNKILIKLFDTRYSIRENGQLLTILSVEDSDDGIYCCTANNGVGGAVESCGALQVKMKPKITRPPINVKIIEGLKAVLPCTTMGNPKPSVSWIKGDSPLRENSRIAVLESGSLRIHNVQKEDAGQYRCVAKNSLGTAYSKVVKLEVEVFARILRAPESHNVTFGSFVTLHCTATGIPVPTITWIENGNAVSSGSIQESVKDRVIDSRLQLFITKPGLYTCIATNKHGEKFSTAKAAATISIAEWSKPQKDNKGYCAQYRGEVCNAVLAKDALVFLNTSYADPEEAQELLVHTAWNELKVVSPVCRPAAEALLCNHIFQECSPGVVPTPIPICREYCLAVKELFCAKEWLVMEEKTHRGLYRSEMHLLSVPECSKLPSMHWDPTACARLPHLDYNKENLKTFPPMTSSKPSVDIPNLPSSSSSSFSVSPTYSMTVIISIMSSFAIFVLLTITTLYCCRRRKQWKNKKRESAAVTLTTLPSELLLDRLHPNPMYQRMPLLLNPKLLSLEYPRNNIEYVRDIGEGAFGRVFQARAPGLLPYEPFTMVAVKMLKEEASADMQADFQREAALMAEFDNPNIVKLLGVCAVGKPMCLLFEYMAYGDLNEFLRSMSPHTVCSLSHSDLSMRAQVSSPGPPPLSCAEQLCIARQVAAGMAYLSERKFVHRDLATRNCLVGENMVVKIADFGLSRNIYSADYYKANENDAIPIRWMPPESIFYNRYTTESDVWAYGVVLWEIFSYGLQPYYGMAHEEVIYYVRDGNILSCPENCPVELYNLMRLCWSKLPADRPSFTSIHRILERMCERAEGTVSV
T7 sequence (Q8TBX8 whole entry): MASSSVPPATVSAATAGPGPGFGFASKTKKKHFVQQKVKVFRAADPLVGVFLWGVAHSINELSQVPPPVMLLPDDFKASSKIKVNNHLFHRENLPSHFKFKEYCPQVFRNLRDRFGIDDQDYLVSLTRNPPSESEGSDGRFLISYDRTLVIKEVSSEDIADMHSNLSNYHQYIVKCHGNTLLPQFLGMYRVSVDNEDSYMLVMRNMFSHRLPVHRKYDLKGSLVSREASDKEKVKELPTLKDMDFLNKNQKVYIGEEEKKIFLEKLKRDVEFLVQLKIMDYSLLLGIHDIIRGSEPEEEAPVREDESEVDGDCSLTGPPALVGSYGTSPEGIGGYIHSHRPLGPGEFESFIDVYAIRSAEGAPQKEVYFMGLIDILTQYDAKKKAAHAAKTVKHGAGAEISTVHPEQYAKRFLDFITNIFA
Chain of KIT(V559D, V654A) (P10721 26-976 V559D/V654A): as the sequence (P10721 26-976 D816H) above, with V534D, V629A, H791D counted along it
T8 sequence (P10721 26-976 D816V): as the sequence (P10721 26-976 D816H) above, with H791V counted along it

**Q.** How did the remaining binding at 10 µM (STK36) turn out when `Cc1ccc(Nc2ncc3c(n2)N(C)CN(c2cc(NC(=O)c4cccc(C(F)(F)F)c4)ccc2C)C3)cn1` [IA-9, N-(4-methyl-3-(1-methyl-7-((6-methylpyridin-3-yl)amino)-1,4-dihydropyrimido[4,5-d]pyrimidin-3(2H)-yl)phenyl)-3-(trifluoromethyl)benzamide] was run?
**A.** Its remaining binding at 10 µM is 1.6%.

**Q.** And the remaining binding at 10 µM (FGR)?
**A.** The remaining binding at 10 µM was 0%.

**Q.** What about the remaining binding at 10 µM (DDR1) of the same molecule?
**A.** Its remaining binding at 10 µM is 1.1%.

**Q.** What about the remaining binding at 10 µM (FLT4) of the same molecule?
**A.** The remaining binding at 10 µM was 0%.

**Q.** What about the remaining binding at 10 µM (FLT1) of the same molecule?
**A.** The remaining binding at 10 µM was 0.55%.

**Q.** What about the remaining binding at 10 µM (ROS1) of the same molecule?
**A.** Its remaining binding at 10 µM is 17%.

**Q.** And the remaining binding at 10 µM (ERBB4)?
**A.** Its remaining binding at 10 µM is 0%.

**Q.** And the remaining binding at 10 µM (TNNI3K)?
**A.** The remaining binding at 10 µM was 0.1%.

**Q.** What about the remaining binding at 10 µM (EPHA1) of the same molecule?
**A.** The remaining binding at 10 µM was 0.35%.

**Q.** And the remaining binding at 10 µM (MUSK)?
**A.** The remaining binding at 10 µM was 6.8%.

**Q.** And the remaining binding at 10 µM (EPHA3)?
**A.** The remaining binding at 10 µM was 11%.

**Q.** And the remaining binding at 10 µM (MAP3K15)?
**A.** Its remaining binding at 10 µM is 8.4%.

**Q.** What about the remaining binding at 10 µM (p38-alpha) of the same molecule?
**A.** Its remaining binding at 10 µM is 0.1%.

**Q.** What about the remaining binding at 10 µM (YES) of the same molecule?
**A.** Its remaining binding at 10 µM is 0.05%.

**Q.** And the remaining binding at 10 µM (CTK)?
**A.** The remaining binding at 10 µM was 3.4%.

**Q.** What about the remaining binding at 10 µM (EGFR(G719S)) of the same molecule?
**A.** Its remaining binding at 10 µM is 0%.

**Q.** And the remaining binding at 10 µM (PIP5K2C)?
**A.** The remaining binding at 10 µM was 19%.

**Q.** And the remaining binding at 10 µM (KIT(D816V))?
**A.** Its remaining binding at 10 µM is 0.05%.

**Q.** And the remaining binding at 10 µM (FLT3(K663Q))?
**A.** Its remaining binding at 10 µM is 0.55%.

**Q.** What about the remaining binding at 10 µM (CDC2L2) of the same molecule?
**A.** The remaining binding at 10 µM was 28%.

**Q.** What about the remaining binding at 10 µM (CSF1R) of the same molecule?
**A.** The remaining binding at 10 µM was 0.15%.

**Q.** And the remaining binding at 10 µM (KIT(D816H))?
**A.** The remaining binding at 10 µM was 5.4%.

**Q.** What about the remaining binding at 10 µM (DRAK2) of the same molecule?
**A.** Its remaining binding at 10 µM is 17%.

**Q.** And the remaining binding at 10 µM (GCN2(Kin.Dom.2, S808G))?
**A.** The remaining binding at 10 µM was 1.3%.

**Q.** What about the remaining binding at 10 µM [1] of the same molecule?
**A.** The remaining binding at 10 µM was 0%.

**Q.** What about the remaining binding at 10 µM (EPHB4) of the same molecule?
**A.** Its remaining binding at 10 µM is 0%.

**Q.** And the remaining binding at 10 µM [2]?
**A.** The remaining binding at 10 µM was 4.1%.

**Q.** And the remaining binding at 10 µM (JNK2)?
**A.** The remaining binding at 10 µM was 0.7%.

**Q.** And the remaining binding at 10 µM (ERBB2)?
**A.** Its remaining binding at 10 µM is 0%.

**Q.** What about the remaining binding at 10 µM (FRK) of the same molecule?
**A.** Its remaining binding at 10 µM is 0%.

**Q.** And the remaining binding at 10 µM (KIT(V559D, V654A))?
**A.** Its remaining binding at 10 µM is 0.35%.

**Q.** And the remaining binding at 10 µM (NEK4)?
**A.** Its remaining binding at 10 µM is 30%.

**Q.** And the remaining binding at 10 µM (PFCDPK1(P. falciparum))?
**A.** The remaining binding at 10 µM was 0.35%.

**Q.** What about the remaining binding at 10 µM [3] of the same molecule?
**A.** The remaining binding at 10 µM was 0%.

**Q.** What about the remaining binding at 10 µM (FYN) of the same molecule?
**A.** Its remaining binding at 10 µM is 0.05%.

— US10364247B2, “Preparation and use of novel protein kinase inhibitors” (Ruijin Hospital Affiliated to Shanghai Jiao Tong University …, priority 2015, dated 2019)
